{"source": "paper PMC5354814", "about": "“In silico and in vitro drug screening identifies new therapeutic approaches for Ewing sarcoma” (Oncotarget, 2016)", "key": {"[1]": {"design": "method as in ref 19 (a number printed in a supplementary file, which may have a reference list of its own: not looked up in the article's list)", "conditions": "intravenous, 20 mg auranofin/kg; cited from earlier work"}, "Saccharomyces": {"tested_on": "Saccharomyces", "design": "method as in ref 18, ref 19", "conditions": "cited from earlier work"}, "Hs 919.T.": {"tested_on": "Hs 919.T.", "assay": "Hits validation, dose-response cell proliferation (CellTiter-Glo)", "format": "cell-based", "conditions": "control cell line, 12-point dose-response, mean ± SD", "procedure,_shortened": "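Read-out is CellTiter-Glo luminescence, from which IC50 values were calculated for each drug. Wells held 750–1,500 cells plated the day before treatment, with drug concentrations spanning 1 nmol/L to 50 μmol/L and vehicle controls included.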"}, "[2]": {"assay": "Auranofin dose tolerance studies (maximum tolerated dose)", "format": "in vivo, BALB/c mice", "text": "These findings led us to develop and assess injectable (i.v. and i.p.) formulations of auranofin. By defining maximum tolerated dose (MTD) following i.v. and i.p. administration of solution and suspension formulations of auranofin, our intent was to evaluate auranofin alone and in combination with ganetespib at MTD in mouse xenograft studies using the more convenient i.p. route of administration. Following administration of the solution formulation of auranofin i.v. and i.p., the maximum tolerated dose was estimated at 1 mg/kg and 6 mg/kg, respectively. Following a single i.p. suspension dose of auranofin, the maximum tolerated dose was 16 mg/kg. This dose was reduced to 12 mg/kg and dose tolerance was evaluated after 5 daily doses of auranofin suspension i.p. to determine the effects of the accumulation of gold in the blood due to the slow elimination of gold. Based on the i.p. suspension dose tolerance studies, the auranofin suspension formulation and dose level of 12 mg/kg was selected for evaluation in xenograft mouse studies.\nThe auranofin dose tolerance and pharmacokinetics study protocols were approved by the KU-Lawrence Institutional Animal Care and Use Committee (KU-IACUC). Subchronic dose tolerance studies were conducted in BALB/c mice to support the design of EWS mouse xenograft studies. By establishing the Maximum Tolerated Dose (MTD), we defined the upper limit of doses selected for EWS mouse xenograft and in vivo pharmacokinetics studies. Mice received a single dose of auranofin solution and suspension administered by i.v. and i.p. routes of administration. Following a starting dose of 1 mg/kg, doses were escalated in subsequent mice until intolerable drug-related adverse effects were observed. MTD was defined as the maximum dose that was not associated dose-limiting adverse effects in mice. The MTD was confirmed in a group of 3 mice. Mice were continuously monitored for up to 4 hours post-dose."}, "mouse spleen cells": {"tested_on": "mouse spleen cells", "design": "method as in ref 19 (a number printed in a supplementary file, which may have a reference list of its own: not looked up in the article's list)", "conditions": "1 x 10^-4M and 1 x 10^-5M; cited from earlier work"}, "[3]": {"assay": "Other animal xenograft models, oral auranofin", "format": "in vivo", "conditions": "unpublished data", "text": "As previously reported, Ridaura® was first developed for the management of rheumatoid arthritis as a disease-modifying anti-rheumatic drug (DMARD). However, the adverse effects and the concerns about the long-term consequences of the immunosuppression induced by Ridaura® led to the decline in its use. […] Therefore, we sought to determine if altering the route of delivery could replicate the dramatic in vitro anticancer activity and improve its efficacy in vivo. Previous studies have shown that orally delivered auranofin is rapidly metabolized and intact auranofin has never been detected in the blood. Thus, studies of the pharmacokinetics of auranofin have involved measurement of gold concentrations. Upon oral administration, 25% of auranofin gets absorbed."}, "[4]": {"tested_on": "human polymorphonuclear neutrophil", "design": "method as in ref 19 (a number printed in a supplementary file, which may have a reference list of its own: not looked up in the article's list)", "conditions": "0.1 - 1.0 µg auranofin/mL; cited from earlier work"}, "[5]": {"assay": "Blood gold pharmacokinetics after i.p. auranofin suspension with ganetespib pre-treatment", "format": "in vivo, BALB/c mice", "text": "As indicated previously, auranofin is a complex of gold triethylphosphine and thioglucose tetraacetate. Gold comprises 29% of auranofin by weight. Auranofin is chemically and metabolically highly unstable in solution. […] Following oral administration of ^195Au auranofin to humans, 25% of administered ^195Au appears in plasma. Further, approximately 40% of absorbed gold distributes into erythrocytes with 60% found in plasma. As a result, and consistent with the extensive literature describing auranofin pharmacokinetics in animals and humans, we characterized the pharmacokinetics of i.p. auranofin in mice by quantifying blood gold concentrations as summarized in Table 4. Peak blood gold concentrations were 12.43 μg/mL in mice receiving auranofin suspension preceded by i.v. ganetespib. […]\nThe single-dose […] pharmacokinetics of gold were characterized in 36 BALB/c mice following administration of a single 12 mg/kg i.p. suspension dose of auranofin. […] Whole blood aliquots of 500 μL obtained from each of the three animals per time point were assayed using a validated inductively coupled plasma mass spectrometry (ICPMS) method to quantify blood gold concentration. Mean blood gold concentrations were determined for each blood collection time point. […]"}}}
{"smiles": "CC(=O)OC[C@H]1O[C@@H]([S-])[C@H](OC(C)=O)[C@@H](OC(C)=O)[C@@H]1OC(C)=O.CCP(CC)CC.[Au+]", "note": "[Auranofin, auranofin]", "values": [{"measurement": "48-hour passive cutaneous anaphylaxis", "setting": "[1]", "result": "inhibition"}, {"measurement": "mutation effects", "setting": "Saccharomyces", "result": "no m utation effects"}, {"measurement": "IC50", "setting": "Hs 919.T.", "result": "5.38 ± 0.89", "unit": "µM"}, {"measurement": "maximum tolerated dose", "setting": "[2]; solution formulation, i.p.", "result": 6, "unit": "mg/kg"}, {"measurement": "maximum tolerated dose", "setting": "[2]; solution formulation, i.v.", "result": 1, "unit": "mg/kg"}, {"measurement": "maximum tolerated dose", "setting": "[2]; suspension, single i.p. dose", "result": 16, "unit": "mg/kg"}, {"measurement": "plaque-forming cells", "setting": "mouse spleen cells", "result": "marked inhibition"}, {"measurement": "efficacy when given orally", "setting": "[3]", "result": "not effective"}, {"measurement": "superoxide production and phagocytosis", "setting": "[4]", "result": "inhibited"}, {"measurement": "Trough gold concentration", "setting": "[5]; 24 hours following the fifth once daily i.p. dose of 12 mg/kg", "result": 23.9, "unit": "µg/mL"}, {"measurement": "Cmax", "setting": "[5]; single i.p. 12 mg/kg auranofin suspension, ganetespib pre-treatment", "result": 63.1, "unit": "µM"}]}
